Results on 2 compounds are retold here after PMC10624687 (Nature Communications, 2023).

Test [1] concerns the target T1, HsClpP (mitochondrial caseinolytic protease P) (Homo sapiens, UniProt Q16740, W146I).
T1 construct: gene CLPP
Briefly: biochemical.

Test [2] deals with SaClpP (Staphylococcus aureus ClpP) (Staphylococcus aureus, UniProt Q2G036, I91W). Briefly: PAGE-based α-casein hydrolysis activation assay; DSF. The format is biochemical.
Test [3] deals with T2, HsClpP (mitochondrial caseinolytic protease P) (Homo sapiens, UniProt Q16740). Briefly: X-ray crystal structure at […] Å; DSF (ΔTm […] °C); EC50 from FITC-casein FI protease assay; CETSA. It is filed as biochemical. Set-up: gene CLPP; HsClpPΔ56 (N-terminus 56 amino acids truncated).
T2 sequence (Q16740 57-277): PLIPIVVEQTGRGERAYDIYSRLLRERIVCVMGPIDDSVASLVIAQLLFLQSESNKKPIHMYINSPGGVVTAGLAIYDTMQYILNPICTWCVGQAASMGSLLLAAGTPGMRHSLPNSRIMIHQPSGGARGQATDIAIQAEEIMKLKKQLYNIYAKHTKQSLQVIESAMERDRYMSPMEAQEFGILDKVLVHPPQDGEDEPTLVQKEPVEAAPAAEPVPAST
Test [4] concerns the target T3, HsClpP (mitochondrial caseinolytic protease P) (Homo sapiens, UniProt Q16740, Y118A).
T3 construct: gene CLPP
Briefly: PAGE-based α-casein degradation assay; NanoDSF. The format is biochemical. In general terms: In DSF a fluorescence change marks the thermal transition of the protein.

Test [5] deals with T2, HsClpP (mitochondrial caseinolytic protease P). As to the kind of experiment: biochemical. Details: gene CLPP.

T1 sequence (Q16740 57-277 W146I): as the sequence (Q16740 57-277) above, with W90I counted along it
T3 sequence (Q16740 57-277 Y118A): as the sequence (Q16740 57-277) above, with Y62A counted along it

A word on the EC50: it is the midpoint of the concentration-response curve. As for `O=C(NCc1ccc(Br)cc1)N1CCN(Cc2cc(F)cc(F)c2)CC1` [ZK53], the EC50 is 11.8 µM in test [1], 5.4 µM in test [2] and 0.22 µM in test [3]. Also, the “PAGE-based α-casein degradation assay; NanoDSF” value in test [4] is “ZK53 is still effective to promote Y118A ClpP for α-casein degradation in PAGE assay”.
Consider `O=C(COc1ccc(Cl)cc1)N1CCN(Cc2cc(F)cc(F)c2)CC1` [ZK11], for which the EC50 in test [5] is 0.45 µM; in test [1] it was 42.4 µM; in test [2] it was 8.4 µM.
